Data as given in US9249159B2, “Composition for treating hepatitis C virus, regulating phosphorylation of replicase” (Industry-Academic Cooperation Foundation, Yonsei University, priority 2011, dated 2016).
“Also recorded” adds a separate entry of the source.

Legend:
[1] = system: genotype 1b HCV subgenomic replicon (R-1 cell line); assay: HCV replication (HCV RNA by real-time RT-PCR, NS5B protein by Western blot) in R-1 subgenomic replicon cells; assay type: cell-based, hepatitis C virus genotype 1b; conditions: 48 hours
Description: In order to check a PRK2 phosphorylation inhibition effect of the novel inhibitors obtained in Example 1, R-1 cell line harboring HCV subgenomic replicons was used.
The R-1 cell line was comprised of cis-acting RNA elements of 5′ and 3′-end untranslated regions (UTR) essential for replication of HCV RNA, a selection marker inserted to select a replicated RNA into a portion from which a structural protein coding site was removed, and a non-structural protein (NS3-NS5B)-coding gene required for replication. In the replicon, the selection marker was expressed by the HCV 5′-UTR and internal ribosome entry site (IRES) as a part of a coding gene of a core protein as a structural protein and capsid protein, and HCV non-structural proteins were expressed by IRES of EMCV. In order to obtain replicon cells, a HCV subgenomic replicon RNA was obtained by means of in vitro transcription by using a T7 RNA polymerase, free ribonucleotide was removed by using a spin column, and introduced into a hepatocellular carcinoma cell line by electroporation. In the presence of G418, a stable cell line, i.e. a cell line showing a resistance to G418 through replication of HCV subgenome, was obtained. Expression of the HCV non-structural proteins in this cell line was analyzed by Western blot to confirm that replication was being carried out, and the R-1 cell line was constructed. It was observed that an HCV RNA copy number was about 10^7 copies/mL by a quantitative real-time PCR analysis using a TaqMan probe. The R-1 cell line was a cell line in which HCV RNA replication was being carried out, and thus it could be used to evaluate an HCV replication inhibition effect of a PRK2 activity inhibitor.
Then, after the R-1 cell line was treated with each of 5 screened PRK2 inhibitors, HA1077 currently and clinically used as a PRK2 activity inhibitor, and Y27632 having a PRK2 activity inhibition effect at a final concentration of 20 μM for 48 hours, levels of HCV NS5B protein and HCV RNA in cell lysates (50 μg) were analyzed by Western blot and real-time RT-PCR.
(§1) To do so, after the two cell lines were treated with the compound #17 at higher concentrations (60 and 100 μM) than 20 μM for 48 hours, an HCV RNA genome level was checked by a real-time RT-PCR analysis. A value was a mean±standard deviation (SD) of three independent measurements. HCV RNA titer was quantified by real-time PCR analysis. Three independent experiments were performed in triplicate.
5 derivatives (#18 to #22: refer to FIG. 2) were produced based on the inhibitor #17 showing the best effect. After the R-1 cell line was treated with each of these inhibitors or HA1077 and Y27632 at a final concentration of 20 μM for 48 hours, an HCV RNA genome level was checked by a real-time RT-PCR analysis and expressed in % with respect to a control treated with DSMO. Three independent experiments were conducted repeatedly three times. Data were expressed by mean±SD of the three experiments.
(§2) Total RNA was extracted from R-1 or HCV (JFH1)-infected cells using TRIzol LS reagent (Invitrogen, Carlsbad, Calif., USA) and purified according to the manufacturer's instructions. HCV RNA levels were quantified by RT-PCR using a primer pair and TaqMan probe targeting a region within the HCV 5′-UTR as described previously. Cellular glyceraldehyde-3-phosphate dehydrogenase was used as an internal control. Assays were performed using the DyNAmo Probe 2-step qRT-PCR Kit (Finnzymes, Espoo, Finland) and a CHROMO4 continuous fluorescence detector (Bio-Rad, Hercules, Calif., USA), according to the manufacturer's instructions.
Therefore, anti-HCV activity of 17-DMAG in the R-1 cell was tested at a level lower than 50 nM. To do so, the R-1 cell was treated with a vehicle (0.25% DMSO) or 17-DMAG for 72 hours and the cell lysates (50 μg) and antibodies specific to the proteins were immunoblotted to measure levels of the proteins. An anti-α-tubulin antibody (lower end panel) was used as an internal loading control. […]

[2] = system: genotype 2a HCV (JFH1)-infected Huh7 cells; assay: HCV RNA level in Huh7 cells infected with HCV (JFH1); assay type: cell-based, hepatitis C virus genotype 2a; conditions: Huh7 cell infected with HCV (JFH-1), 60 and 100 μM, 48 hours
Experimental: as §1
Full-length, infectious HCV RNA of the genotype 2a HCV clone JFH1 was prepared by in vitro transcription using the MEGAscript T7 kit (Ambion, Austin, Tex., USA) and electroporated into Huh7 cells as described previously. Briefly, at 72 h post electroporation, culture medium was collected, cleared by low-speed centrifugation, and passed through a 0.45-μm filter (Millipore, Billerica, Mass., USA) before being used for infection of Huh7 cells. Cells were infected with HCV at a multiplicity of infection of 0.3 by adsorption for 3 h with periodic rocking, then washed three times with phosphate-buffered saline (PBS) and maintained in complete DMEM. […]
as §2, with “Cellular glyceraldehyde-3-phosphate dehydrogenase was used as an internal control.” left out
In order to analyze whether or not 17-DMAG can inhibit replication in a cell infected with HCV, an experiment was carried out with the genotype 2a HCV infectious clone JFH1, which produces infectious virions in Huh7 or Huh7-derived cell lines. […] After 72 hours, total cellular RNA was extracted and HCV remaining in the infected cell was analyzed by quantitative RT-PCR.

[3] = system: R-1 cell; assay: Cytotoxicity / cell viability in R-1 cell; assay type: cell-based, human; conditions: R-1 cell, 100 μM
Experimental: (§3) Cytotoxicity of 17-DMAG was measured by using a reagent MTS [3-(4,5-dimethylthiazol-2-yl)-5-(3-carboxylmethoxyphenyl)-2-(4-sulfophenyl)-2H-tetrazolium] (Promega, Madison, Wis., USA) according to the protocols of the manufacturer. The experiment was carried out as follows.
(§4) Huh7 or R-1 cells (2×10^4 cell/well) were seeded in a 96-well plate and treated with 17-DMAG at different concentrations for 72 hours. Then, the culture medium was removed and a MTS substrate dissolved in the culture medium containing 5% FBS was added to each well of the plate. The cells were cultured at 37° C. for 1 hour, and absorbance at 490 nm was read in a 96-well micro plate automatic reading system using GloMax-Multi detection system (Promega).
(§5) An experiment was carried out to check whether or not 17-DMAG inhibited virus RNA replication in an R-1 cell in which autonomous replication of a genotype 1b HCV subgenomic replicon RNA was maintained. Before antiviral activity of 17-DMAG was evaluated, an MTS assay was carried out to evaluate whether or not the drug interfered with cell viability. To be specific, the R-1 cell loaded with a selective HCV subgenomic replicon (upper diagram) and its parental cell line Huh7 were treated with 17-DMAG at a certain concentration for 72 hours, and cell viability was evaluated by the MTS assay.

[4] = system: Huh7 cell; assay: Cytotoxicity / cell viability (MTS) in Huh7 cell; assay type: cell-based, human; conditions: 100 μM
Experimental: as §3, §4, §5

[5] = biological target: recombinant active PRK2 (Homo sapiens, UniProt Q16513); assay: In vitro kinase assay: recombinant PRK2 phosphorylating HCV NS5B; assay type: biochemical; conditions: gamma-32P ATP and 100 μM ATP, autoradiography
Experimental: Then, in order to test an HCV NS5B protein phosphorylation inhibition effect of the screened novel PRK2 inhibitor, in vitro kinase assay was carried out.
Using a recombinant active PRK2 and purified HCV NS5B protein as substrates, the screened inhibitors #11 and #17 were treated in the presence of gamma-^32P ATP and 100 μM ATP. The reaction mixture was separated by SDS-PAGE (8% gel), and a result thereof was checked by autoradiography.
Finally, PRK2 and HCV NS5B phosphorylation inhibition effects of the compounds #18, #19, #20, #21 and #22 as the derivatives of the compound #17 were analyzed through in vitro kinase assay.
A 1 μM recombinant PRK2 and 10 μM HCV NS5B were phosphorylated for 30 minutes in the presence of 10 μCi γ-^32P ATP and 100 μM ATP. The reaction mixture was separated by SDS-PAGE (8% gel), and a result thereof was checked by autoradiography.

recombinant active PRK2, sequence (Q16513 whole entry): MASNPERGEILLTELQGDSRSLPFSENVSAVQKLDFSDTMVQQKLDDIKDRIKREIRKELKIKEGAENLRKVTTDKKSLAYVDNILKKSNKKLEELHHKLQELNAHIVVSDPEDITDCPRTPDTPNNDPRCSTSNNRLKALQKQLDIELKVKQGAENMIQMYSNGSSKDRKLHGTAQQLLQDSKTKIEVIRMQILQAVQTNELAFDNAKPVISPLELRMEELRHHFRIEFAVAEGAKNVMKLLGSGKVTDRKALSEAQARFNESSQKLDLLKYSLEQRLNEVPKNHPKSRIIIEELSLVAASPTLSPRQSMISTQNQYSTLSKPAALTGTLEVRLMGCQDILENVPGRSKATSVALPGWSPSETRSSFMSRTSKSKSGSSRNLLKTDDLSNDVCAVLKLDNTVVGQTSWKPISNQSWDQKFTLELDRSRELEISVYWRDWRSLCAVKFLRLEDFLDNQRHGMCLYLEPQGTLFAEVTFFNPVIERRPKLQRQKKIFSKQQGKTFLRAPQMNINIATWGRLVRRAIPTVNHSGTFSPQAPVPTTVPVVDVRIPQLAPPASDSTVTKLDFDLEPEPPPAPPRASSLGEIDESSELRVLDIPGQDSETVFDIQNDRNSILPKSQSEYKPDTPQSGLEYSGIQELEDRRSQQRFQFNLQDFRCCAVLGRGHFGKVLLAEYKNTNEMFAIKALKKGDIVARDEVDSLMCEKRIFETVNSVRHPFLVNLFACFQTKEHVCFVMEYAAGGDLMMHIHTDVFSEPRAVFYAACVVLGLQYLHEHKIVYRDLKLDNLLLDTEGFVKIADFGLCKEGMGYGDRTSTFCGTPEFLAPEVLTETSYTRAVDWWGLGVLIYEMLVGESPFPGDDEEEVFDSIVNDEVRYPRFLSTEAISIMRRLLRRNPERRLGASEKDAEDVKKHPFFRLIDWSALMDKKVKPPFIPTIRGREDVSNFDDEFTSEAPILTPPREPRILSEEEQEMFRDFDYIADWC

## O=C1NCCCC1C(=O)Nc1ccncc1 (stereo not drawn) [compound #17, 2-oxo-N-4-pyridinyl-3-piperidinecarboxamide]
[1]; R-1 cell line, 20 μM
  decrease of HCV RNA titers with respect to DMSO control: about 50%
[1]; R-1 cell, 60 and 100 μM
  HCV RNA titers: decreased in a dosage-dependent manner
[2]
  HCV RNA titers: decreased in a dosage-dependent manner; also recorded: slightly higher in a cell infected with JFH-1 than in an HCV subgenomic replicon cell
[3]
  activity of the cells (cytotoxicity): not greatly inhibited
[4]
  activity of the cells (cytotoxicity): not greatly inhibited
[5]
  inhibition of in vitro phosphorylation of HCV NS5B protein: inhibit phosphorylation of HCV NS5B protein
